{"source": "patent US11116732B2", "about": "“Carotenoid-containing cognitive function improving composition for use in exercise therapy for improving cognitive function” (ASTAREAL CO., LTD., priority 2016, dated 2021)", "key": {"[1]": {"system": "spatial learning memory ability", "assay": "Morris water maze (MWM): place learning escape training and probe test", "type": "in vivo, mouse", "conditions": "for escape time during place learning escape training: P<0.05", "description": "(§1) For the purpose of clarifying whether or not hippocampal function improving effect is enhanced by low intensity exercise, influence of combined use of low intensity exercise (7 m/min) of VT or less and ASX uptake (0.5% by weight) on AHN and spatial cognitive function was investigated.\n(§2) All the mice used in this experiment were divided so that the weight was equalized at the preliminary breeding end point. These were divided into four groups of placebo+rest (CON), placebo+low intensity exercise (ME), 0.5% ASX uptake+rest (ASX), and the low intensity exercise+0.5% ASX uptake (ME+ASX) (FIG. 5). Mice were bred each one per a cage.\n2-11. Evaluation of Spatial Learning Memory Ability: Morris Water Maze (MWM)\nEvaluation of spatial learning memory ability was carried out.\nHere, in order to clarify whether or not improvement of the hippocampal function due to the low intensity exercise is enhanced by ASX uptake, influence of combined use of the low intensity exercise of VT or less and 0.5% ASX uptake on AHN and spatial learning memory ability was investigated. For the evaluation of AHN, the numbers of proliferating cells (Ki67+), viable cells (BrdU+), and newly matured cells (BrdU+/NeuN+) were counted using immunohistochemical staining method and the result thereof was shown by the rate of change relative to the CON group. Also, the spatial learning memory ability was evaluated using the MWM with regard to acquiring ability (learning) of memory by the place learning escape training for 4 days, and retention and recollection ability of memory by the probe test on the fifth day."}, "[2]": {"system": "hippocampal gene expression", "assay": "Hippocampal gene expression by DNA microarray and IPA network analysis", "type": "in vivo, mouse", "description": "as §2, with “three” for “four”, “(ME),” for “(ME), 0.5% ASX uptake+rest (ASX),”, “and” for “and the”, “(each n=8).” for “(FIG. 5).”\nThe brain was removed two days after 4 weeks training and ASX uptake. The hippocampus was fractionated from the collected brain (Hirano M, Rakwal R, Shibato J, Sawa H, Nagashima K, Ogawa Y, Yoshida Y, Iwahashi H, Niki E, Masuo Y. Proteomics- and transcriptomics-based screening of differentially expressed proteins and genes in brain of Wig rat: a model for attention deficit hyperactivity disorder (ADHD) research. J Proteome Res 7: 2471-2489, 2008). The hippocampus was immediately frozen with liquid nitrogen and stored in a freezer at −80° C. […]\n3) Hybridization: Samples of fluorescently labeled control group (CON group) and experiment group (ME group, ME+ASX group) are assayed on the same Microarray chip and hybridized with a 60 base pair probe on the slide glass. […] In the program at this time, the color intensity of Cy3 and Cy5 of all the probes was measured. 6) Standardization of data: For standardization of data, LOWESS (locally weighted linear regression) was used, and logarithmic and logarithmic error rates standardized from Cy3 and Cy5 signals were calculated. […]"}, "[3]": {"system": "adult hippocampal neurogenesis (hippocampal dentate gyrus)", "assay": "Adult hippocampal neurogenesis (AHN): immunohistochemical count of Ki67+, BrdU+ and BrdU+/NeuN+ cells after 4 weeks of ASX uptake with or without low intensity exercise", "type": "in vivo, mouse", "conditions": "for number of newly matured cells (BrdU+/NeuN+), rate of change relative to the CON group / number of proliferating cells (Ki67+), rate of change relative to the CON group / number of viable cells (BrdU+), rate of change relative to the CON group: 4 weeks", "description": "as §1, §2\n0.5% ASX uptake or placebo uptake was carried out.\nThe mice in the low intensity exercise group imposed a treadmill running exercise of 7 m/min for 30 minutes a day. Also, the mice in the rest group were placed on the treadmill for equal time with the running exercise training and were not allowed to exercise anything (control experiment). For the running exercise training, a treadmill for small animals (KN-73, Natsume, Japan) was used. In either of the groups, training or control experiment was imposed once a day in the dark period, which became active for mice.\nBrdU (bromodeoxyuridine) is taken up as an analog molecule of thymidine into the cell nucleus at the S phase of the cell cycle and is used to evaluate cell division, proliferation, and subsequent survival. Thus, BrdU (100 mg/kg BW) was intraperitoneally administered to all mice during three days before starting running exercise and 0.5% ASX uptake (FIG. 5). Administration was carried out only once a day (AM8:00).\nImmunohistochemical staining method is a method of labeling and visualizing a target DNA or protein on a tissue utilizing an antigen antibody reaction. In visualization, it is carried out by labelling an enzyme or a fluorescent substance, etc., which is a substance to be a marker, to an antibody which bounds to an antigen, and reacting with the marker to colorize the antibody adhered portion. In this experiment, fluorescent antibody method was used for evaluation of proliferating cells, viable cells and newly matured neurons.\nIn this experiment, BrdU was identified for the evaluation of neoplastic cells. For identification, rat anti-BrdU antibody (Rat anti-BrdU, AbD Serotec) was used as a primary antibody and CyTM3 donkey anti-rat IgG antibody (Cy3 Donkey Anti-Rat IgG, JACKSON) was used as a secondary antibody to fluorescently label with red color and visualized. In addition, for identification of mature neurons, mouse anti-NeuN antibody (Mouse Anti-Neuronal Nuclei monoclonal antibody, Chemicon) was used as a primary antibody, and for visualization, a fluorescently labeled secondary antibody AMCA donkey anti-mouse IgG antibody (AMCA Donkey Anti-Mouse IgG, JACKSON) was used and stained to blue color.\nAccording to this procedure, newly matured cells were evaluated by BrdU+/NeuN+ reaction (red+bluish white). The procedures of the fluorescent antibody method were shown below.\nIn this experiment, for evaluation of cell proliferation, it was identified by Ki67. For identification, rabbit anti-Ki67 antibody (Rabbit anti-Ki67, Abcam) was used as a primary antibody, and Alexa 555 anti-rabbit IgG antibody (Goat Alexa 555 anti-rabbit IgG, Biotium) was used as a secondary antibody to fluorescently label with red color and visualized. In addition, for identification of the matured neurons, mouse anti-NeuN antibody (Mouse Anti-Neuronal Nuclei monoclonal antibody, Chemicon) was used as a primary antibody, and for visualization, a fluorescently labeled secondary antibody AMCA donkey anti-mouse IgG antibody (AMCA Donkey Anti-Mouse IgG, JACKSON) was used and stained to blue color. According to this procedure, newly matured cells were evaluated by Ki67+/NeuN+reaction (red+bluish white). The procedures of the fluorescent antibody method were shown below.\nAll data were expressed as an average value±standard error of each sample. […]"}, "[4]": {"conditions": "in vivo; cited from earlier work"}, "[5]": {"system": "hippocampal mRNA expression", "assay": "Hippocampal mRNA expression by RT-PCR", "type": "in vivo, mouse", "description": "as §2, with “three” for “four”, “(ME),” for “(ME), 0.5% ASX uptake+rest (ASX),”, “and” for “and the”, “(each n=8).” for “(FIG. 5).”\nThe brain was removed two days after 4 weeks training and ASX uptake. The hippocampus was fractionated from the collected brain (Hirano M, Rakwal R, Shibato J, Sawa H, Nagashima K, Ogawa Y, Yoshida Y, Iwahashi H, Niki E, Masuo Y. Proteomics- and transcriptomics-based screening of differentially expressed proteins and genes in brain of Wig rat: a model for attention deficit hyperactivity disorder (ADHD) research. J Proteome Res 7: 2471-2489, 2008). The hippocampus was immediately frozen with liquid nitrogen and stored in a freezer at −80° C.\nIn order to confirm the reproducibility and validity of the molecular mechanism estimated by the microarray and IPA analysis, 12 genes were picked up and the changes in their gene expression were reexamined by RT-PCR.\nAll data were expressed as an average value±standard error. For statistical processing of RT-PCR, after one-way analysis of variance (One-way ANOVA), the Bonferroni's tests method was used as post-hoc. All the significance levels were set to less than 5%."}, "neural progenitor cells": {"system": "neural progenitor cells", "conditions": "in vitro; cited from earlier work"}, "[6]": {"system": "nerve injury due to epilepsy", "conditions": "rat, in vivo; cited from earlier work"}, "[7]": {"conditions": "ASX group: 0.5% ASX uptake + rest"}, "[8]": {"conditions": "ASX group compared with the CON group, P<0.05"}, "[9]": {"conditions": "ME+ASX group: low intensity exercise (7 m/min) + 0.5% ASX uptake"}}}
{"smiles": "CC1=C(/C=C/C(C)=C/C=C/C(C)=C/C=C/C=C(C)/C=C/C=C(C)/C=C/C2=C(C)C(=O)[C@@H](O)CC2(C)C)C(C)(C)C[C@H](O)C1=O", "note": "[ASX, astaxanthin]", "values": [{"measurement": "spatial memory capacity, increase rate for the CON group", "setting": "[1]; ASX group", "result": 25.9, "unit": "%"}, {"measurement": "result of the MWM", "setting": "[1]; ASX group, 0.5% ASX uptake", "result": "significantly improved"}, {"measurement": "escape time during place learning escape training", "setting": "[1]; ASX group, fourth day", "result": "significant shortening"}, {"measurement": "probe test: ratio of the cumulative time of swimming within the quadrant where the platform existed to the total swimming time", "setting": "[1]; [7]", "result": 30.5, "unit": "%"}, {"measurement": "spatial memory capacity, increase rate for the CON group", "setting": "[1]; ME+ASX group", "result": 60.6, "unit": "%"}, {"measurement": "escape time during place learning escape training", "setting": "[1]; ME+ASX group compared with the CON, third day", "result": "significant shortening"}, {"measurement": "probe test: ratio of the cumulative time of swimming within the quadrant where the platform existed to the total swimming time", "setting": "[1]; ME+ASX group: low intensity exercise + 0.5% ASX uptake", "result": 39.9, "unit": "%"}, {"measurement": "swimming speed", "setting": "[1]; among the groups (CON, ME, ASX, ME+ASX)", "result": "no significant difference"}, {"measurement": "Igflr (insulin-like growth factor 1 receptor) gene expression (IPA network analysis)", "setting": "[2]; ME+ASX group only", "result": "estimated to enhance"}, {"measurement": "Lep and Cxcr4 gene expression (IPA network analysis)", "setting": "[2]; ME+ASX group, similar to the ME group", "result": "enhancement"}, {"measurement": "number of BrdU positive cells", "setting": "[3]; [8]", "result": "significant increase"}, {"measurement": "number of BrdU/NeuN positive cells", "setting": "[3]; [8]", "result": "significant increase"}, {"measurement": "number of Ki67 positive cells", "setting": "[3]; [8]", "result": "significant increase"}, {"measurement": "number of newly matured cells (BrdU+/NeuN+), rate of change relative to the CON group", "setting": "[3]; [7]", "result": "+46.3%"}, {"measurement": "number of proliferating cells (Ki67+), rate of change relative to the CON group", "setting": "[3]; [7]", "result": "+16.9%"}, {"measurement": "number of viable cells (BrdU+), rate of change relative to the CON group", "setting": "[3]; [7]", "result": "+44.9%"}, {"measurement": "effect of the combination of low intensity exercise and ASX uptake on AHN and hippocampal function, against the sum of the ME group and the ASX group", "setting": "[3]; ME+ASX group", "result": "synergistically increases"}, {"measurement": "number of Ki67 positive cells", "setting": "[3]; ME+ASX group compared with the ME group and the ASX group, P<0.001", "result": "significant increase"}, {"measurement": "number of BrdU positive cells", "setting": "[3]; ME+ASX group compared with the ME group and the ASX group, P<0.05", "result": "significant increase"}, {"measurement": "number of newly matured cells (BrdU+/NeuN+), rate of change relative to the CON group", "setting": "[3]; [9]", "result": "+102.9%"}, {"measurement": "number of proliferating cells (Ki67+), rate of change relative to the CON group", "setting": "[3]; [9]", "result": "+52.3%"}, {"measurement": "number of viable cells (BrdU+), rate of change relative to the CON group", "setting": "[3]; [9]", "result": "+95.7%"}, {"measurement": "passage through the blood brain barrier", "setting": "[4]", "result": "moves through the blood brain barrier into the brain"}, {"measurement": "mRNA expression of Cxcr4, Stat3, Mapk1 and Jak2", "setting": "[5]; ME+ASX group (also in the ME group)", "result": "significantly increased"}, {"measurement": "mRNA expression of Psen1, Notch2, Igflr, Igfl, Pi3k and Creb", "setting": "[5]; only in the ME+ASX group", "result": "increased significantly"}, {"measurement": "proliferation of neural progenitor cells", "setting": "neural progenitor cells", "result": "enhances the proliferation of neural progenitor cells"}, {"measurement": "protection against nerve injury due to epilepsy", "setting": "[6]", "result": "protect against nerve injury due to epilepsy"}]}
